In the supplement of paper PMC10307832:

Each cell line was assayed with CC1=CC(=CC=C1)NC2=NC(=CS2)C3=CC=NC=C3 (assay: relative viability (nuclei count vs DMSO), 5 days (fraction); higher = more cells survive). Settings: 0.08 µM.
How it was run: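 Hoechst staining, done together with fixation and permeabilisation, marked nuclei for 4× imaging and MetaXpress counting. This followed 5 days without medium change after lung cancer cell lines, kept overnight at 37 °C in 1536-well plates, were pinned with five library-drug doses (not always all listed) spaced by √10 on vehicle-anchored plates. Viability is the ratio of treated-well to vehicle-well nuclei, expressed as a median across plates. Plates passed only at control CV below 25% with at least one doubling.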

Cell Line	relative viability
201T	0.939
NCI-H1975	0.798
HCC-827	0.963
NCI-H1299	0.981
NCI-H2347	0.948
NCI-H1355	0.769
NCI-H650	0.805
CAL-12T	0.867
NCI-H1666	0.866
EPLC-272H	0.856
NCI-H23	0.879
NCI-H1915	0.937
NCI-H1437	0.976
NCI-H322M	0.819
NCI-H1563	0.917
NCI-H1792	0.746
NCI-H2085	0.99
HCC-15	0.916
NCI-H1944	0.871
PC-3 [JPC-3]	0.941
EKVX	0.884
LC-2-ad	0.877
NCI-H1650	0.715
NCI-H2170	0.901
NCI-H1993	0.67
SK-LU-1	0.996
ABC-1	0.795
SK-MES-1	0.815
NCI-H661	0.907
RERF-LC-KJ	0.945

Same assay, conditions: 0.253 µM

Cell Line	relative viability
201T	0.959
NCI-H1975	0.762
HCC-827	0.982
NCI-H1299	0.997
NCI-H2347	0.864
NCI-H1355	0.73
NCI-H650	0.881
CAL-12T	0.928
NCI-H1666	0.83
EPLC-272H	0.793
NCI-H23	0.808
NCI-H1915	0.961
NCI-H1437	0.882
NCI-H322M	0.845
NCI-H1563	1.04
NCI-H1792	0.698
NCI-H2085	1
HCC-15	0.936
NCI-H1944	0.912
PC-3 [JPC-3]	0.936
EKVX	0.933
LC-2-ad	0.916
NCI-H1650	0.841
NCI-H2170	1.01
NCI-H1993	0.788
SK-LU-1	1.03
ABC-1	0.786
SK-MES-1	0.82
NCI-H661	0.944
RERF-LC-KJ	0.91

Same assay, conditions: 0.8 µM

Cell Line	relative viability
201T	0.959
NCI-H1975	0.843
HCC-827	0.951
NCI-H1299	0.968
NCI-H2347	0.749
NCI-H1355	0.768
NCI-H650	1.01
CAL-12T	1.06
NCI-H1666	0.818
EPLC-272H	0.813
NCI-H23	1.01
NCI-H1915	0.962
NCI-H1437	0.938
NCI-H322M	0.948
NCI-H1563	0.954
NCI-H1792	0.793
NCI-H2085	0.968
HCC-15	1.02
NCI-H1944	0.958
PC-3 [JPC-3]	0.927
EKVX	0.795
LC-2-ad	0.967
NCI-H1650	0.962
NCI-H2170	0.945
NCI-H1993	0.768
SK-LU-1	0.702
ABC-1	1.08
SK-MES-1	0.804
NCI-H661	0.913
RERF-LC-KJ	0.834

Same assay, conditions: 2.53 µM

Cell Line	relative viability
201T	0.74
NCI-H1975	0.714
HCC-827	1
NCI-H1299	1.02
NCI-H2347	0.982
NCI-H1355	0.694
NCI-H650	0.752
CAL-12T	0.854
NCI-H1666	0.705
EPLC-272H	0.732
NCI-H23	0.835
NCI-H1915	0.938
NCI-H1437	0.874
NCI-H322M	1.02
NCI-H1563	0.983
NCI-H1792	0.653
NCI-H2085	0.94
HCC-15	0.915
NCI-H1944	0.765
PC-3 [JPC-3]	0.868
EKVX	0.89
LC-2-ad	0.839
NCI-H1650	0.687
NCI-H2170	0.942
NCI-H1993	0.792
SK-LU-1	1.1
ABC-1	0.786
SK-MES-1	0.922
NCI-H661	0.914
RERF-LC-KJ	0.751

Same assay, conditions: 8 µM

Cell Line	relative viability
201T	0.712
NCI-H1975	0.549
HCC-827	0.7
NCI-H1299	0.937
NCI-H2347	0.964
NCI-H1355	0.65
NCI-H650	1.15
CAL-12T	0.911
NCI-H1666	0.688
EPLC-272H	0.958
NCI-H23	0.972
NCI-H1915	0.89
NCI-H1437	0.856
NCI-H322M	0.961
NCI-H1563	0.838
NCI-H1792	0.753
NCI-H2085	0.826
HCC-15	0.807
NCI-H1944	0.809
PC-3 [JPC-3]	0.91
EKVX	0.82
LC-2-ad	0.785
NCI-H1650	0.434
NCI-H2170	0.824
NCI-H1993	0.876
SK-LU-1	0.968
